Measurements: ChEMBL document CHEMBL6121063, “Identification of a Potent and Selective CDK9 Degrader as a Targeted Therapeutic Option for the Treatment of Small-Cell Lung Cancer” (J Med Chem, 2025)
pIC50: −log10 of the molar value. ≈ marks a conversion by molar mass, not a printed value.

Tests used:
[1] = Kinetic solubility of compound in FeSSIF buffer incubated for 2 hrs by LC-MS/MS analysis; type: physicochemical; conditions: read-out: Kinetic_solubility
[2] = Metabolic stability in mouse liver microsomes assessed as half-life; type: ADME, Microsome; conditions: for half-life: liver microsomes
[3] = Metabolic stability in mouse liver microsomes assessed as parent compound remaining measured after 60 mins; type: ADME, Microsome; conditions: read-out: Stability
[4] = molecular target: T1, Protein cereblon/Cyclin-dependent kinase 9 (Homo sapiens, UniProt P50750+Q96SW2); test: PROTAC activity at CRBN/CDK9 in human NCI-H69 cells assessed as induction of CDK9 degradation incubated for 8 hrs by Western blot analysis; type: cell-based
Target sequence in this assay (P50750 whole entry): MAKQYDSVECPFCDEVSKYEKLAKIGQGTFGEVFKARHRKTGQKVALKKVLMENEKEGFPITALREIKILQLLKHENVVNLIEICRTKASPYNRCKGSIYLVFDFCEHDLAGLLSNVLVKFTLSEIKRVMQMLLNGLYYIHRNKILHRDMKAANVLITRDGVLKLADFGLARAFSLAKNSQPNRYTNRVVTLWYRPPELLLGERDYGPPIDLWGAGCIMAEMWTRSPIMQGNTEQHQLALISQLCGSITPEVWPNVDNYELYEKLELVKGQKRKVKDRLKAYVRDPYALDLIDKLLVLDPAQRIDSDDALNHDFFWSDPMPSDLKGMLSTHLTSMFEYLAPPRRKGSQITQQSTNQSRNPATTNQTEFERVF
Target sequence in this assay (Q96SW2 whole entry): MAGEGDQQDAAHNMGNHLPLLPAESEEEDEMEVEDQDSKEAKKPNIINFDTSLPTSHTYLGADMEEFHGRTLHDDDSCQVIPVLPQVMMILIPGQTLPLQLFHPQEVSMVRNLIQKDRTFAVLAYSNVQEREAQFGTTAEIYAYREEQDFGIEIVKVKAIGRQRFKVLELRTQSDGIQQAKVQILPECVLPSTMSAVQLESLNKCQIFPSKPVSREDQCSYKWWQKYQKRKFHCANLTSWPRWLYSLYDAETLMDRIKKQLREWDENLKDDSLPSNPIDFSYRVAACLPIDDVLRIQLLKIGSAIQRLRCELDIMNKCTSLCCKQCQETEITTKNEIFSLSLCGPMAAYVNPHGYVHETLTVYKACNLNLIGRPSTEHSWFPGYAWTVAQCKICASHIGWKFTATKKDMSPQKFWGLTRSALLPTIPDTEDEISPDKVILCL

[5] = Metabolic stability in human liver microsomes assessed as intrinsic clearance; type: ADME, Microsome; conditions: for microsomal CLint: liver microsomes, read-out: CLH
[6] = molecular target: T1, Protein cereblon/Cyclin-dependent kinase 9; test: PROTAC activity at CRBN/CDK9 in human NCI-H446 cells assessed as induction of CDK9 degradation at 10 nM by Western blot analysis relative to control; type: cell-based
Target sequence in this assay (P50750 whole entry, looked up): as the sequence (P50750 whole entry) above
Target sequence in this assay (Q96SW2 whole entry, looked up): as the sequence (Q96SW2 whole entry) above

[7] = molecular target: T1, Protein cereblon/Cyclin-dependent kinase 9; test: PROTAC activity at CRBN/CDK9 in human NCI-H69 cells assessed as induction of CDK9 degradation at 10 nM by Western blot analysis relative to control; type: cell-based
Target sequence in this assay (P50750 whole entry, looked up): as the sequence (P50750 whole entry) above
Target sequence in this assay (Q96SW2 whole entry, looked up): as the sequence (Q96SW2 whole entry) above

[8] = Metabolic stability in mouse liver microsomes assessed as intrinsic clearance; type: ADME, Microsome; conditions: for microsomal CLint: liver microsomes, read-out: CLH
[9] = Metabolic stability in human liver microsomes assessed as parent compound remaining measured after 60 mins; type: ADME, Microsome; conditions: read-out: Stability
NCI-H446 = test: Antiproliferative activity against human NCI-H446 cells assessed as inhibition of cell growth incubated for 72 hrs by CCK8 assay; type: functional, cell-based; conditions: NCI-H446, 72 h
NCI-H69 [10] = test: Antiproliferative activity against human NCI-H69 cells assessed as inhibition of cell growth incubated for 72 hrs by CCK8 assay; type: functional, cell-based; conditions: NCI-H69, 72 h
[11] = Metabolic stability in human liver microsomes assessed as half-life; type: ADME, Microsome; conditions: for half-life: liver microsomes
[12] = Efflux ratio of apparent permeability across basolateral to apical over apical to basolateral side in human Caco-2 cells at 2 uM measured after 60 mins by HPLC analysis; type: ADME, cell-based
[13] = Apparent permeability across apical to basolateral side in human Caco-2 cells at 2 uM measured after 60 mins by HPLC analysis; type: ADME, cell-based
[14] = Apparent permeability across basolateral to apical side in human Caco-2 cells at 2 uM measured after 60 mins by HPLC analysis; type: ADME, cell-based
NCI-H69 [15] = test: Induction of apoptosis in human NCI-H69 cells assessed as increase in p53 level incubated for 36 hrs by Western blot analysis; type: functional, cell-based
[16] = molecular target: Cyclin-dependent kinase 4/cyclin D1 (Homo sapiens) (UniProt P11802+P24385); test: Inhibition of CDK4/cyclin D1 (unknown origin) at 10 nM relative to control; type: protein-complex assay
[17] = molecular target: Cyclin-dependent kinase 1/cyclin B1 (Homo sapiens) (UniProt P06493+P14635); test: Inhibition of CDK1/cyclin B1 (unknown origin) at 10 nM relative to control; type: protein-complex assay
[18] = molecular target: CDK6/cyclin D3 (Homo sapiens) (UniProt P30281+Q00534); test: Inhibition of CDK6/cyclin D3 (unknown origin) at 10 nM relative to control; type: protein-complex assay
NCI-H69 [19] = test: Induction of apoptosis in human NCI-H69 cells assessed as decrease in BCL-2 expression incubated for 36 hrs by Western blot analysis; type: functional, cell-based
[20] = molecular target: CDK9/cyclin T1 (Homo sapiens) (UniProt O60563+P50750); test: Inhibition of CDK9/Cyclin T1 (unknown origin) at 10 nM relative to control; type: protein-complex assay
NCI-H69 [21] = test: Induction of apoptosis in human NCI-H69 cells assessed as increase in cleaved PARP level incubated for 36 hrs by Western blot analysis; type: functional, cell-based
[22] = molecular target: CDK12/Cyclin K (Homo sapiens) (UniProt O75909+Q9NYV4); test: Inhibition of CDK12/Cyclin K (unknown origin) at 10 nM relative to control; type: protein-complex assay
[23] = molecular target: CDK6/cyclin D1 (Homo sapiens) (UniProt P24385+Q00534); test: Inhibition of CDK6/cyclin D1 (unknown origin) at 10 nM relative to control; type: protein-complex assay
[24] = molecular target: CDK3/Cyclin E (Homo sapiens) (UniProt P24864+Q00526); test: Inhibition of CDK3/cyclin E1 (unknown origin) at 10 nM relative to control; type: protein-complex assay
[25] = molecular target: T2, Cyclin-dependent kinase 5/CDK5 activator 1 (Homo sapiens) (UniProt Q00535+Q15078); test: Inhibition of CDK5/p35NCK (unknown origin) at 10 nM relative to control; type: protein-complex assay
[26] = molecular target: CDK4/Cyclin D3 (Homo sapiens) (UniProt P11802+P30281); test: Inhibition of CDK4/cyclin D3 (unknown origin) at 10 nM relative to control; type: protein-complex assay
NCI-H69 [27] = test: Induction of apoptosis in human NCI-H69 cells assessed as increase in cleaved caspase-3 level incubated for 36 hrs by Western blot analysis; type: functional, cell-based
[28] = molecular target: Cyclin-dependent kinase 13/Cyclin-K (Homo sapiens) (UniProt Q14004+O75909); test: Inhibition of CDK13/Cyclin K (unknown origin) at 10 nM relative to control; type: protein-complex assay
[29] = molecular target: T2, Cyclin-dependent kinase 5/CDK5 activator 1 (Homo sapiens); test: Inhibition of CDK5/p25NCK (unknown origin) at 10 nM relative to control; type: protein-complex assay
NCI-H69 [30] = test: Induction of apoptosis in human NCI-H69 cells assessed as decrease in MCL-1 expression incubated for 36 hrs by Western blot analysis; type: functional, cell-based

T2 sequence (Q00535 whole entry): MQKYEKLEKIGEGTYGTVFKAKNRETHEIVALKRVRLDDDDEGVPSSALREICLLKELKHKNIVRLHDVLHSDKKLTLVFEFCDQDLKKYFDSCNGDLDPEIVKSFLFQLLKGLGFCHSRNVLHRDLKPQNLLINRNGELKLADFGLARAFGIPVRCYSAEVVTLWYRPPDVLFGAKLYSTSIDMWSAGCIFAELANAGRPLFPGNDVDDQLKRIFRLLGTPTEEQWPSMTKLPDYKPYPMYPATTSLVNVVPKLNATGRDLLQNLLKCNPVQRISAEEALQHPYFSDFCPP
T2 sequence (Q15078 99-307 partner limits assumed): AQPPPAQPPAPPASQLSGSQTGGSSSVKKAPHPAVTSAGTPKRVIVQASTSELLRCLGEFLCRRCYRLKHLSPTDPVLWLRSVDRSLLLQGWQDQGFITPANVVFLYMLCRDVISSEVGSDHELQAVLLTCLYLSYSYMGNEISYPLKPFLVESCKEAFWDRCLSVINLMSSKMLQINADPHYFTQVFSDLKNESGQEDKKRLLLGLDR
Chain of CDK3/Cyclin E (Homo sapiens) (P24864 whole entry, looked up): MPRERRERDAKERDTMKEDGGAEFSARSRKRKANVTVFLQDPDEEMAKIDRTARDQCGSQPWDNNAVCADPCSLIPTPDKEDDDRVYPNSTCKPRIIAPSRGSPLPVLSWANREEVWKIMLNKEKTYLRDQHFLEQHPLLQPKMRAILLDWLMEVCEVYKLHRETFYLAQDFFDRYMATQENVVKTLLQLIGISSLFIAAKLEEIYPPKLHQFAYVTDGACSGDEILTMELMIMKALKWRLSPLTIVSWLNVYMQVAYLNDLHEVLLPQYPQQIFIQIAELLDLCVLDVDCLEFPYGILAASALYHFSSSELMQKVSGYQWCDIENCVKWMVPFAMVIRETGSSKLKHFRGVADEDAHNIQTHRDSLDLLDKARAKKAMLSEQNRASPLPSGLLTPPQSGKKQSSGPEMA
Chain of CDK3/Cyclin E (Homo sapiens) (Q00526 whole entry, looked up): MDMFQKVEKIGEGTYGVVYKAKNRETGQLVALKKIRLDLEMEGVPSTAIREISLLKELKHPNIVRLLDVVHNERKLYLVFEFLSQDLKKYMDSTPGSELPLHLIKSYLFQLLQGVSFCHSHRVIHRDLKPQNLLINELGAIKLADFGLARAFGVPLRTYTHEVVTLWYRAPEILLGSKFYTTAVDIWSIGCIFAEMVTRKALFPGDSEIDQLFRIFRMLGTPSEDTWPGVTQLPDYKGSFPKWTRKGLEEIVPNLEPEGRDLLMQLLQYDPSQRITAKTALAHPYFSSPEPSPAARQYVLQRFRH
Chain of Cyclin-dependent kinase 13/Cyclin-K (Homo sapiens) (O75909 whole entry, looked up): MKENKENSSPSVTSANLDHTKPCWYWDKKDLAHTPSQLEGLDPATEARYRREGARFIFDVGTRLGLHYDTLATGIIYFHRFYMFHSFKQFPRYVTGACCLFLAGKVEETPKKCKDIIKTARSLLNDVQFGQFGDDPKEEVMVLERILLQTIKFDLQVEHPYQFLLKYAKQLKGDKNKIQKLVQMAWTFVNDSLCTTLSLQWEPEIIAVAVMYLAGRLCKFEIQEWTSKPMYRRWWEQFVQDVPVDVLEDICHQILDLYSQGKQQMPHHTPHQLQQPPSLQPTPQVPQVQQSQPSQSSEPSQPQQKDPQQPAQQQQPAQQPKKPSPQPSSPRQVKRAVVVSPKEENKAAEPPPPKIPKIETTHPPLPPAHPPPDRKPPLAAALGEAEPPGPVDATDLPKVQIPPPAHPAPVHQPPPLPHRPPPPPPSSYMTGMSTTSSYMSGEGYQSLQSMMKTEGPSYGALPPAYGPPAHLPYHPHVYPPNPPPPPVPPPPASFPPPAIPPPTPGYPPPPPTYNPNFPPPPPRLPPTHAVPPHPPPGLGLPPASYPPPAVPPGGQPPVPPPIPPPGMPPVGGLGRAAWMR
Chain of Cyclin-dependent kinase 13/Cyclin-K (Homo sapiens) (Q14004 whole entry, looked up): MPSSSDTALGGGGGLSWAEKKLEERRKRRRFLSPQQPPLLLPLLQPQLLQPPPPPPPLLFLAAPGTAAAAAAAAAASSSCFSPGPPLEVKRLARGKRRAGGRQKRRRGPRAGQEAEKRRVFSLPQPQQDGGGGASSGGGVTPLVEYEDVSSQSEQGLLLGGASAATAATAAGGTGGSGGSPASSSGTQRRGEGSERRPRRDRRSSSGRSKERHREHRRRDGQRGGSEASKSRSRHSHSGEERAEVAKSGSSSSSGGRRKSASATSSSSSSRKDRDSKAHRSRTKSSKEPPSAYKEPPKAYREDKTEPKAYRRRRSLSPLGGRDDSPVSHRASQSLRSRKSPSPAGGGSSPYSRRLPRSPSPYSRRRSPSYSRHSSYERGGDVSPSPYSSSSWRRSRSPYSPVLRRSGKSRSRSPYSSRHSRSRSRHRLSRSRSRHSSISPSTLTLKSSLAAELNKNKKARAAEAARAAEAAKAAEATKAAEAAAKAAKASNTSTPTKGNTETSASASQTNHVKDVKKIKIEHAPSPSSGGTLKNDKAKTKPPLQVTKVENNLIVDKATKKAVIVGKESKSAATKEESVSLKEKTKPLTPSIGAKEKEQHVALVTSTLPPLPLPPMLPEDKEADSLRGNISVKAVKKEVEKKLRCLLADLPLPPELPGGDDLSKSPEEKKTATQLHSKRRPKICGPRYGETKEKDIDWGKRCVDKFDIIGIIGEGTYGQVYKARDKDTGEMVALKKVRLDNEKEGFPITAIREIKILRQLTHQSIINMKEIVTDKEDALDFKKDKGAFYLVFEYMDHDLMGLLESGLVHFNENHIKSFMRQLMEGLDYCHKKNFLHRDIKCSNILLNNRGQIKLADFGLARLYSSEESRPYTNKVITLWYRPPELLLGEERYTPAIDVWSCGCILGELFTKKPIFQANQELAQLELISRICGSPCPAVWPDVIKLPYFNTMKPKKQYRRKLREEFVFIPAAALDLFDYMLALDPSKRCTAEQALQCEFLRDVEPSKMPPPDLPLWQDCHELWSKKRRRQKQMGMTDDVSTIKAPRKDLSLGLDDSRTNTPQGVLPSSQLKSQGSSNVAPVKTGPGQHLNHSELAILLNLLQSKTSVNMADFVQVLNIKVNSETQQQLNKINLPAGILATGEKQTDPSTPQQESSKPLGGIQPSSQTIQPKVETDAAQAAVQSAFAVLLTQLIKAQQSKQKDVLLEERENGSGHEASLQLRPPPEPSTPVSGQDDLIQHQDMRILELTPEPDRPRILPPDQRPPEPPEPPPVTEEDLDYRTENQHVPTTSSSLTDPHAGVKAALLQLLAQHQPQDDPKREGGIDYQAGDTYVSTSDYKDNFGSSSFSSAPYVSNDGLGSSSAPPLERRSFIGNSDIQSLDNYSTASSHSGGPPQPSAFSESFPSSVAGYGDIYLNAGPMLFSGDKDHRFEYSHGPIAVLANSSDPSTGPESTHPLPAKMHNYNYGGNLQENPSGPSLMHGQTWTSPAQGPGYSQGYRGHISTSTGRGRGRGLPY

Structure (SMILES)	solubility kinetic at 2 h [1] [µM]	half-life [2] [min]	remaining at 1 h [3] [%]	DC50 [4] [nM]	microsomal CLint [5] [µL/min/mg]	Activity [6] [%]	Activity [7] [%]	microsomal CLint [8] [µL/min/mg]	remaining at 1 h [9] [%]	pIC50 (NCI-H446)	pIC50 (NCI-H69 [10])	half-life [11] [min]	further results
O=C(O)Cc1ccccc1Nc1c(Cl)cccc1Cl [DICLOFENAC]	316 (≈ 93.6 µg/mL)												
O=C1CCC(N2C(=O)c3ccc(N4CCN(CC(=O)N5CCC(CN6CCC(NC(=O)c7n[nH]cc7NC(=O)c7c(Cl)cccc7Cl)CC6)CC5)CC4)cc3C2=O)C(=O)N1 (stereo not given)		85.6	61.1	8.97	292	81.3	86.1	16.2	1.2	8.70	8.32	4.75	
Cl.O=C1CCC(Nc2cccc(N3CCN(CC4CCN(CC(=O)N5CCC(NC(=O)c6n[nH]cc6NC(=O)c6c(Cl)cccc6Cl)CC5)CC4)CC3)c2)C(=O)N1 (stereo not given)	290												
CC(C)NCC(O)COc1cccc2ccccc12 (stereo not given) [PROPRANOLOL]													efflux ratio at 1 h, 2 µM [12]: 1.6; Papp A→B at 1 h, 2 µM [13]: 9.64 ×10⁻⁶ cm/s; Papp B→A at 1 h, 2 µM [14]: 15.4 ×10⁻⁶ cm/s
Cc1ncc2n1-c1ccc(Cl)cc1C(c1ccccc1F)=NC2 [MIDAZOLAM]													t1/2 ([2]; microsomes): 2.72 min; CLH ([5]; microsomes): 1200 µL/min/mg; CLH ([8]; microsomes): 1270 µL/min/mg; t1/2 ([11]; microsomes): 2.9 min
O=C1CCC(N2C(=O)c3ccc(N4CCN(CC5CCN(CC(=O)N6CCC(NC(=O)c7n[nH]cc7NC(=O)c7c(Cl)cccc7Cl)CC6)CC5)CC4)cc3C2=O)C(=O)N1 (stereo not given)	9.08 (≈ 7.83 µg/mL)	126	71.9	3.8	46	83.9	89.1	11	24.3	8.58	8.89	30.4	efflux ratio at 1 h, 2 µM [12]: 16.2; Papp A→B at 1 h, 2 µM [13]: 0.326 ×10⁻⁶ cm/s; Papp B→A at 1 h, 2 µM [14]: 5.27 ×10⁻⁶ cm/s
O=C(NC1CCNCC1)c1n[nH]cc1NC(=O)c1c(Cl)cccc1Cl [AT-7519]										6.76	6.73		Activity (NCI-H69 [15]): Dose-dependent-effect; inhibition [16]: 36%; inhibition [17]: 31%; inhibition [18]: 20%; Activity (NCI-H69 [19]): Dose-dependent-effect; inhibition [20]: 79%; Activity (NCI-H69 [21]): Dose-dependent-effect; inhibition [22]: 29%; inhibition [23]: 34%; inhibition [24]: 16%; inhibition [25]: 20%; inhibition [26]: 47%; Activity (NCI-H69 [27]): Dose-dependent-effect; inhibition [28]: 36%; inhibition [29]: 26%; Activity (NCI-H69 [30]): Dose-dependent-effect
O=C1CCC(N2C(=O)c3ccc(N4CCN(CC5CCN(C(=O)CN6CCC(NC(=O)c7n[nH]cc7NC(=O)c7c(Cl)cccc7Cl)CC6)CC5)CC4)cc3C2=O)C(=O)N1 (stereo not given)		84.5	61.2	4.5	225	78.2	88.4	16.4	3.2	8.43	8.19	6.17	
O=C1CCC(Nc2ccc(N3CCN(CC4CCN(CC(=O)N5CCC(NC(=O)c6n[nH]cc6NC(=O)c6c(Cl)cccc6Cl)CC5)CC4)CC3)cc2)C(=O)N1 (stereo not given)		136	72	5.67	26	74.1	88.9	10.2	64.7	7.45	7.96	58.8	
